Among the data in ChEMBL document CHEMBL3871296, “Phytochemical and cytotoxic studies on the roots of Euphorbia fischeriana” (Bioorg Med Chem Lett, 2017) are IC50 values, retold here.

Experiment [1] can be described thus: Cytotoxicity against human Hep3B cells assessed as cell growth inhibition by MTT assay. It is filed as functional, cell-based, Hep 3B2. A general note: Tetrazolium assays rely on reduction of a dye to a coloured formazan, in cell work by metabolically active cells.
Experiment [2] in a line: Cytotoxicity against human A549 cells assessed as cell growth inhibition by MTT assay. It is filed as functional, cell-based.

Take `C=C1C[C@@]23CC[C@@H]4C(C)(C)[C@H](O)CC[C@@]4(C)[C@H]2C[C@@H]1CC3=O`: the concentration for half-maximal inhibition (IC50) in experiment [1] and in experiment [2] was more than 100 µM in each case.

Take `CCCCCCCCCCCCCCCC(=O)O[C@@]12C[C@@H](C)[C@@]3(O)[C@@H](C=C(C=O)C[C@]4(O)C(=O)C(C)=C[C@@H]34)[C@@H]1C2(C)C`: the concentration for half-maximal inhibition (IC50) (as a rule, the midpoint of a concentration-inhibition curve) came to 12 µM in experiment [1] and 9.38 µM in experiment [2].

In the case of `OCC(O)C(O)C(O)c1cncc(-c2ccco2)n1` (stereo not drawn), the half-inhibitory concentration (IC50) in experiment [1] and in experiment [2] was more than 100 µM throughout.

As to `CC1(C)OC[C@@]2(C[C@@]34CC[C@H]5C(C)(C)C(=O)CC[C@]5(C)[C@H]3CC[C@H]2C4)O1`, the IC50 in experiment [1] is 8.15 µM; in experiment [2], more than 100 µM.

`CC1(C)[C@H](O)CC[C@]2(C)[C@@H]1CC[C@@]13CC[C@@H](C[C@@H]12)[C@](O)(CO)C3`: the 50% inhibitory concentration (IC50) in experiment [1] and in experiment [2] was more than 100 µM in each case.

For the compound `C=C(C)[C@@H]1CC[C@]2(C)CC[C@]3(C)[C@H](CC[C@@H]4[C@@]5(C)CC[C@H](OC(C)=O)C(C)(C)[C@@H]5CC[C@]43C)[C@@H]12` [LUPENYL ACETATE], the IC50 in experiment [1] stood at 18.7 µM; in experiment [2], 29.8 µM.

On to `CC1(C)CC[C@]2(C)CC[C@]3(C)C(=CC=C4[C@@]5(C)C[C@@H](O)[C@H](O)C(C)(C)[C@@H]5CC[C@]43C)[C@@H]2C1`, for which the IC50 in experiment [1] was determined as 12.5 µM; in experiment [2], 11.9 µM.

As to `O=c1[nH]cc(F)c(=O)[nH]1` [FLUOROURACIL], the 50% inhibitory concentration (IC50) in experiment [1] was 9.36 µM; in experiment [2], 16.6 µM.

For `CC1(C)C(=O)CC[C@]2(C)[C@@H]1CC[C@]13C[C@H](CO)[C@@H](CC[C@H]12)C3`, the IC50 in experiment [1] and in experiment [2] was more than 100 µM in each case.
